Source: US20250134863A1, “MEDICAL AGENT FOR TREATING OR SUPPRESSING PROGRESSION OF AMYOTROPHIC LATERAL SCLEROSIS” (MITSUBISHI TANABE PHARMA CORPORATION, priority 2022, published 2025)

Key:
ALS patients [1] = details: 18 trial; ALS severity of grade 3; very small number of cases; cited from earlier work
ALS patients [2] = assay: Post-hoc statistical analysis 2: ALSFRS-R total score from baseline to cycle 12 (16, 17 and 19 trials), MMRM; type: in vivo, human
Source text: After a 12-week observation period, patients whose ALSFRS-R total score decreased by 1 to 4 points during that period were considered eligible for the trial. In the 16 trial, eligible patients were randomly divided into an edaravone treatment group and a placebo administration group, and patients in each group received administration for 24 weeks (cycles 1 to 6). After completing the 24-week double-blind portion of the 16 trial, patients who received edaravone (E) were randomly assigned to the 17 trial, and during a 24-week double-blind extension period (cycles 7 to 12), edaravone treatment (EE group) or placebo administration (EP group) was performed. On the other hand, all patients from the placebo (P) administration group received edaravone treatment (PE group). All patients received open-label edaravone treatment for the next 12 weeks (cycles 13 to 15).
(§1) Edaravone was administered at a dose of 60 mg by intravenous infusion over 60 minutes, once daily. The infusion was given for 14 days in the first treatment cycle, and for 10 days out of the 14-day treatment period in all subsequent cycles. A 14-day drug holiday period was provided after each treatment cycle.
Similar to the 16 trial, after a 12-week observation period, patients in the 19 trial were randomly divided into an edaravone treatment group and a placebo administration group, and patients in each group received administration for 24 weeks (cycles 1 to 6). In the 19 trial, after the double-blind treatment period, all patients received open-label edaravone treatment for an additional 24 weeks (cycles 7 to 12). Therefore, the 19 trial included an EE group and a PE group.
In order to characterize the uric acid level and ALSFRS-R total score profiles at cycle 12, efficacy was analyzed in randomized ALS patients at the start of cycle 7 and randomized ALS patients who received the medical agent at least once after the start of cycle 7.
Descriptive statistics (number of subjects, mean, standard deviation, minimum, maximum) were used to summarize the changes in uric acid levels (mg/dL) and ALSFRS-R total scores from baseline to cycle 12 for the entire population and for the Edaravone treatment group as a subgroup defined by the median baseline uric acid level (4.8 mg/dL). The median baseline uric acid level for all patients (4.8 mg/dL) was derived using the entire edaravone population, including the EE, PE, and EP groups in the 16 trial, the 17 trial, and the 19 trial.
The least squares (LS) mean difference of the EE and EP treatment groups compared to the PE treatment group was estimated using a mixed-effects model for repeated measures (MMRM). By using the MMRM, the LS mean, standard error, 95% confidence interval (CI), and p-value for each group are calculated. The MMRM includes treatment group, time point, interaction between treatment group and time point, age (<65 years or >65 years), initial symptoms (bulbar or limb symptoms), ALS diagnostic criteria (ALS definite, ALS highly possible, ALS highly possible with positive test findings, ALS possible), change in ALSFRS-R total score during the 12-week observation period (−1/−2 or −3/−4), and use of riluzole (Yes or No) as fixed effects, and includes baseline of the ALSFRS-R total score or uric acid baseline (mg/dL) of the median subgroup as covariates. A compound symmetric covariance matrix was applied to model covariance of within-patient scores, and the Kenward-Roger approximation was applied to estimate a degrees of freedom of the criteria. The statistical significance level was set at a two-sided level of 0.05.

ALS patients [3] = assay: MCI186-19 trial (19 trial), randomized double-blind placebo-controlled phase 3, edaravone injection, ALSFRS-R; type: in vivo, human; details: edaravone group, placebo −7.50±0.66, p=0.0013
Source text: Clinical trials using edaravone injections include two-group phase 3 trials. In the first phase 3 trials [MCI186-16 trial (hereinafter referred to as the 16 trial) and MCI186-17 trial (hereinafter referred to as the 17 trial)], it was shown that edaravone was involved in suppressing decline in ALS function compared to placebo, as evaluated by an ALSFRS-R total score. A subgroup showing a significant therapeutic effect of Edaravone has been identified by the 16 trial, and an inclusion criterion for this subgroup is also used in designing a second major phase 3 trial, that is, a 19 trial (MCI186-19).
as §1
The MCI186-19 trial (hereinafter referred to as the 19 trial) was a randomized, double-blind, parallel-group, placebo-controlled trial. Details of the trial are as described in NCT01492686, Reference 3 (Lancet Neurol 2017; 16 (7): 505-512) and Reference 4 (Amyotroph Lateral Scler Frontotemporal Degener 2017; 18 (suppl 1): 55-63). […]

[4] = Subgroup with uric acid level baseline <4.8 mg/dL, EE group
[5] = Subgroup with uric acid level baseline <4.8 mg/dL, EP group
[6] = Subgroup with uric acid level baseline <4.8 mg/dL, PE group
[7] = Subgroup with uric acid level baseline ≥4.8 mg/dL, EE group
[8] = Subgroup with uric acid level baseline ≥4.8 mg/dL, EP group
[9] = Subgroup with uric acid level baseline ≥4.8 mg/dL, PE group

Structure (SMILES): CC1=NN(c2ccccc2)C(=O)C1 [edaravone, 3-methyl-1-phenyl-2-pyrazolin-5-one]
- change in ALSFRS-R total score compared to placebo (ALS patients [1]): no statistically significant difference was observed compared to placebo
- ALSFRS-R total score change from BL to cycle 12, LS Mean (SE) (ALS patients [2]; Overall, EE group): −7.2 (1.17) points
- ALSFRS-R total score change from BL to cycle 12, Mean (SD) (ALS patients [2]; Overall, EE group): −8.1 points
- ALSFRS-R total score change from BL to cycle 12, Mean (SD) (ALS patients [2]; Overall, EE group, listed as Edaravone): −8.1 (5.97) points
- ALSFRS-R total score change from BL to cycle 12, LS Mean (SE) (ALS patients [2]; Overall, EP group): −8.7 (1.28) points
- ALSFRS-R total score change from BL to cycle 12, Mean (SD) (ALS patients [2]; Overall, EP group): −9.6 (6.88) points
- ALSFRS-R total score at Cycle 12, Mean (SD) (ALS patients [2]; Overall, Edaravone-Edaravone (EE) group): 33.3 (7.66) points
- ALSFRS-R total score at Cycle 12, Mean (SD) (ALS patients [2]; Overall, Edaravone-Placebo (EP) group): 31.3 (7.74) points
- ALSFRS-R total score change from BL to cycle 12, LS Mean (SE) (ALS patients [2]; Overall, PE group): −9.9 (1.12) points
- ALSFRS-R total score change from BL to cycle 12, Mean (SD) (ALS patients [2]; Overall, PE group): −10.3 (7.70) points
- ALSFRS-R total score at Cycle 12, Mean (SD) (ALS patients [2]; Overall, Placebo-Edaravone (PE) group): 31.2 (8.64) points
- ALSFRS-R total score at Cycle 12, Mean (SD) (ALS patients [2]; [4]): 32.6 (8.48) points
- ALSFRS-R total score change from BL to cycle 12, LS Mean (SE) (ALS patients [2]; [4]): −7.0 (1.38) points
- ALSFRS-R total score change from BL to cycle 12, Mean (SD) (ALS patients [2]; [4]): −8.7 points
- ALSFRS-R total score change from BL to cycle 12, Mean (SD) (ALS patients [2]; Subgroup with uric acid level baseline <4.8 mg/dL, EE group, listed as Edaravone): −8.7 (6.95) points
- ALSFRS-R total score at Cycle 12, Mean (SD) (ALS patients [2]; [5]): 31.5 (7.66) points
- ALSFRS-R total score change from BL to cycle 12, LS Mean (SE) (ALS patients [2]; [5]): −7.8 (1.78) points
- ALSFRS-R total score change from BL to cycle 12, Mean (SD) (ALS patients [2]; [5]): −9.7 (7.17) points
- ALSFRS-R total score at Cycle 12, Mean (SD) (ALS patients [2]; [6]): 31.6 (7.99) points
- ALSFRS-R total score change from BL to cycle 12, LS Mean (SE) (ALS patients [2]; [6]): −8.5 (1.37) points
- ALSFRS-R total score change from BL to cycle 12, Mean (SD) (ALS patients [2]; [6]): −9.7 (7.30) points
- ALSFRS-R total score at Cycle 12, Mean (SD) (ALS patients [2]; [7]): 34.0 (6.65) points
- ALSFRS-R total score change from BL to cycle 12, LS Mean (SE) (ALS patients [2]; [7]): −8.1 (0.91) points
- ALSFRS-R total score change from BL to cycle 12, Mean (SD) (ALS patients [2]; [7]): −7.4 points
- ALSFRS-R total score change from BL to cycle 12, Mean (SD) (ALS patients [2]; Subgroup with uric acid level baseline ≥4.8 mg/dL, EE group, listed as Edaravone): −7.4 (4.63) points
- ALSFRS-R total score at Cycle 12, Mean (SD) (ALS patients [2]; [8]): 31.1 (7.97) points
- ALSFRS-R total score change from BL to cycle 12, LS Mean (SE) (ALS patients [2]; [8]): −10.3 (1.05) points
- ALSFRS-R total score change from BL to cycle 12, Mean (SD) (ALS patients [2]; [8]): −9.5 (6.82) points
- ALSFRS-R total score at Cycle 12, Mean (SD) (ALS patients [2]; [9]): 30.8 (9.20) points
- ALSFRS-R total score change from BL to cycle 12, LS Mean (SE) (ALS patients [2]; [9]): −12.0 (0.77) points
- ALSFRS-R total score change from BL to cycle 12, Mean (SD) (ALS patients [2]; [9]): −10.9 (8.03) points
- LS mean±standard error of the change in ALSFRS-R from baseline to 24 weeks (ALS patients [3]): −5.01±0.64
